The source of these data is article PMC10284550, “Accelerating drug target inhibitor discovery with a deep generative foundation model” (Science Advances, 2023).

SMILES strings stand for the structures. Read-outs that look alike come from different tables or passages of the source. A value given as a limit tells only on which side of the number the result lay.

Assay [1] concerns the target T1, SARS-CoV-2 M^pro (Severe acute respiratory syndrome coronavirus 2, UniProt P0DTD1). The assay can be described thus: biochemical.
Assay [2] has as its system SARS-CoV-2 pseudotyped lentivirus. The assay can be described thus: microbe, parasite or virus in culture. The class given is cell-based.
In assay [3] the test system is SARS-CoV-2 pseudotyped lentivirus (Victoria). Kind of assay: microbe, parasite or virus in culture. Type of assay: cell-based. The conditions noted are these: read-out: IC50 pseudoviral neutralization, Victoria.
The subject of assay [4] is SARS-CoV-2 pseudotyped lentivirus (Alpha). Kind of assay: microbe, parasite or virus in culture. The class given is cell-based. Conditions: read-out: IC50 pseudoviral neutralization, Alpha.
Assay [5] deals with SARS-CoV-2 pseudotyped lentivirus (Beta). The assay can be described thus: microbe, parasite or virus in culture. Type of assay: cell-based. Conditions: read-out: IC50 pseudoviral neutralization, Beta.
Assay [6] has as its system SARS-CoV-2 pseudotyped lentivirus (Gamma). Kind of assay: microbe, parasite or virus in culture. The conditions noted are these: read-out: IC50 pseudoviral neutralization, Gamma. Type of assay: cell-based.
Assay [7] concerns SARS-CoV-2 pseudotyped lentivirus (Delta). Kind of assay: microbe, parasite or virus in culture. The class given is cell-based. Conditions: read-out: IC50 pseudoviral neutralization, Delta.
For assay [8], the system named is SARS-CoV-2 pseudotyped lentivirus (Omicron). Kind of assay: microbe, parasite or virus in culture. The class given is cell-based. The conditions noted are these: read-out: IC50 pseudoviral neutralization, Omicron.
The subject of assay [9] is SARS-CoV-2 Victoria live virus (SARS-CoV-2/human/AUS/VIC01/2020). The assay can be described thus: microbe, parasite or virus in culture. The class given is cell-based.
Assay [10] relates to SARS-CoV-2 Alpha live virus. Kind of assay: microbe, parasite or virus in culture. The class given is cell-based.
The subject of assay [11] is SARS-CoV-2 Gamma live virus. Kind of assay: microbe, parasite or virus in culture. Type of assay: cell-based. The conditions noted are these: Severe acute respiratory syndrome coronavirus 2, read-out: IC50 live virus neutralization, Gamma.
The subject of assay [12] is SARS-CoV-2 Delta live virus. The assay can be described thus: microbe, parasite or virus in culture. The class given is cell-based.
The subject of assay [13] is SARS-CoV-2 Omicron live virus. The assay can be described thus: microbe, parasite or virus in culture. Type of assay: cell-based. Conditions: Severe acute respiratory syndrome coronavirus 2, read-out: IC50 live virus neutralization, Omicron.
For assay [14], the target named is T1, SARS-CoV-2 M^pro. Type of assay: binding.
Assay [15] relates to SARS-CoV-2. Conditions: cited from earlier work.
The mark [16] stands for this setting: Severe acute respiratory syndrome coronavirus 2, HEK293T/17, read-out: IC50, neutralization of SARS-CoV-2 pseudotyped lentivirus.
The mark [17] stands for this setting: Severe acute respiratory syndrome coronavirus 2, read-out: IC50, neutralization of Victoria live virus.

In the case of `OC1CCN(c2nc(Nc3ccc4c(c3)CCC4)nc(N3CCC(F)(F)CC3)n2)CC1` [GXA70], the IC50 in assay [1] was 43 µM.

Turning to `C#CCN1CCC(CCNc2ccnc3ccccc23)CC1` [GEN727], the IC50 is 2.8 µM in assay [2] (setting [16]); 0.7 to 2.8 µM in assay [2] (read-out: IC50, neutralization of spike-containing pseudovirus across all VOCs); 2.8 ± 1.6 µM in assay [3]; 2.4 ± 0.4 µM in [4]; 1.1 ± 0.8 µM in assay [5]; 0.7 ± 0.3 µM in assay [6]. Further, the IC50 in assay [7] is 2.2 ± 0.1 µM; in assay [8] it was 2.7 ± 0.5 µM; in [9] (setting [17]), 34.8 ± 2 µM; in assay [9] (Severe acute respiratory syndrome coronavirus 2, read-out: IC50 live virus neutralization, Victoria) it was 31.5 ± 2.6 µM; in [9] (read-out: IC50 live virus neutralization, Victoria), below 50 µM; in [10] (Severe acute respiratory syndrome coronavirus 2, read-out: IC50 live virus neutralization, Alpha), 33.8 ± 1.1 µM. Also, the IC50 is below 50 µM in [10] (read-out: IC50 live virus neutralization, Alpha); 55.4 ± 8.9 µM in assay [11]; 39.1 ± 7.4 µM in [12] (Severe acute respiratory syndrome coronavirus 2, read-out: IC50 live virus neutralization, Delta); below 50 µM in assay [12] (read-out: IC50 live virus neutralization, Delta); 130 ± 1.9 µM in assay [13].

Consider `CN(Cc1ccc(Cl)c(Cl)c1)c1ccc(S(N)(=O)=O)cn1` [Z68337194], for which the IC50 in assay [1] was 35.5 µM. Besides, in assay [14], the “Binding to M^pro seen in crystal structure” value is given as “bound in the active site pocket”.

For `CS(=O)(=O)c1ccccc1Oc1ccc(-c2ccc(S(N)(=O)=O)cc2)cc1` [GEN725], the results for the IC50 in assay [2] (setting [16]) and in assay [9] (setting [17]) were 18.7 µM and above 50 µM, respectively.

For `Cn1nnnc1C1(c2cccc(Cl)c2)CCC1` [GEN777], the IC50 in assay [2] (setting [16]) and in assay [9] (setting [17]) was above 50 µM in each case.

Consider `NC(=O)c1ccc(N)cc1OC1CCN(CC(F)(F)F)CC1` [GEN626], for which the IC50 in assay [2] (setting [16]) and in assay [9] (setting [17]) was above 50 µM throughout.

Turning to `CS(=O)(=O)c1cccc(C[C@H](NC(=O)c2c(Cl)cc3c(c2Cl)CCN(C(=O)c2ccc4ccoc4c2)C3)C(=O)O)c1` [Lifitegrast], the “antiviral potency against SARS-CoV-2 in vitro” value in assay [15] is “dose-dependent antiviral potency”.

In assay [1], `CN(c1nc(N2CCOCC2)nc(N2CCc3ccccc32)n1)C1CCC(NS(N)(=O)=O)CC1` (stereo not shown) [GXA112] displayed an IC50 of 34.2 µM.
